In US10889553B2, “Asymmetric triazole benzamide derivatives and the compositions and methods of treatment regarding the same” (NysnoBio Ireland DAC, priority 2017, dated 2021):
Where “and” joins values, the source holds several entries; their conditions need not be identical. Equal entries are not always repeated.

Target: T1, Parkin ligase (Homo sapiens, UniProt O60260)
T1 sequence (O60260 1-465): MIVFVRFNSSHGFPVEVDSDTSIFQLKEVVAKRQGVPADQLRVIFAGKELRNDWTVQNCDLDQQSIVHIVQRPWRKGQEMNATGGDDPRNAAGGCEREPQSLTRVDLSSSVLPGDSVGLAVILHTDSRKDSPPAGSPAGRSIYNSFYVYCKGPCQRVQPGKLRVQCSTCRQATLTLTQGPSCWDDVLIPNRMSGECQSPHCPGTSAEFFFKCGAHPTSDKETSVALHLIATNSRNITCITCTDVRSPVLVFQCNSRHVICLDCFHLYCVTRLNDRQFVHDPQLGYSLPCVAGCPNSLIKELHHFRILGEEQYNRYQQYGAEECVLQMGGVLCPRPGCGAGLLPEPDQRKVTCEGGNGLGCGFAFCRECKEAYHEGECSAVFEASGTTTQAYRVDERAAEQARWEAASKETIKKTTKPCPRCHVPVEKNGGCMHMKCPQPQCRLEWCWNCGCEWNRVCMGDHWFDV
Assay: Activity-Based Probe Assay using Ubiquitin vinyl sulfone probe (TR-FRET)
Format: biochemical
Conditions: heat activated Parkin, HA-Ub-VS probe, activation EC50; read-out: Probe Assay EC50 (μM) [Example 2]
Experimental: An Ubiquitin vinyl sulfone probe can be used that irreversibly binds to the active site cysteine of Parkin ligase. Covalent attachment of the probe to the Parkin can be monitored by TR-FRET. Candidate activator compounds can be identified by increasing the activity of Parkin ligase due to an increase in TR-FRET signal. Screening for activating compounds can be distinguished from the controls as follows: 100% activation signal=Heat activated Parkin+100 nM control activator in DMSO. 0% activation signal=Heat activated Parkin+DMSO only. Parkin activators can be identified by an increase of the 0% activation signal TR-FRET signal. Assay Conditions: Materials: • Assay Plate: White 384 well plate (Corning 3572) • Enzyme: Parkin-His tagged 203 μM (10.5 mg/ml) • Probe: Ubiquitin vinyl-sulfone (HA-Ub-VS Boston Biochem U-212) • DMSO: DMSO (Sigma cat #D4540-100ML) • Reaction Buffer: 50 mM HEPES (pH 8.5), 150 mM NaCl, 0.01% Tween 20, 0.1% BSA • Detection Buffer: 50 mM HEPES (pH 8.5), 150 mM NaCl, 0.01% Tween 20, 0.1% BSA, 800 mM KF • Detection Reagent A: 2.6 nM Anti-6HIS-Eu cryptate and 40 nM Anti-HA-XL665 in detection buffer • Eu cryptate: Anti-6HIS-Eu cryptate (CisBio 61HISKLA) • XL665: Anti-HA-XL665 (CisBio 610HAXLA) Enzyme Reaction (15 Min Pre Incubation Parkin with Activator Only) • Parkin: 40 nM • HA-Ub-VS Probe: 70 nM • Activator/DMSO: 2× Activator/2% DMSO Reaction time: 60 minutes Temperature: 22° C. Total volume: 10 μl reaction Detection Reaction Take […] of Enzyme Reaction above and add 10 μl detection Reagent A under the following conditions: • Reaction time: 60 minutes • Temperature: 22° C. • Total volume: 20 μl
Assay procedure (Using HP D-300 compound dispenser and Bravo for the operation):
1) Heat activate Parkin in reaction buffer (500 μl/1.5 ml tube: Eppendorf Thermomixer 5 minutes, 400 rpm at 58° C. and put on ice until needed).
2) Load assay plate wells with 4.8 μl 84.5 nM Parkin in reaction buffer by use of Bravo.
3) Deliver 0.2 μl 200× activator candidates in DMSO by use of HP D-300 compound dispenser. Highest 200× concentration=[…] and then twofold dilutions.
4) Spin 1000 rpm, 2 minutes, at room temp.
5) Incubate plate for 15 minutes at room temp.
6) Add 5 μl 140 nM HA-Ub-VS Probe in reaction buffer by use of Bravo.
7) Spin 1000 rpm, 2 minutes, at room temp.
8) Incubate plate for 60 minutes at room temp.
9) Add 10 μl 2.6 nM Anti-6HIS-Eu cryptate and 40 nM […] in detection buffer.
10) Spin 1000 rpm, 2 minutes, at room temp.
11) Incubate plate for 60 minutes at room temp.
12) Read plates on Perkin Elmer Envision instrument with the following parameters:
LANCE dual laser protocol loaded into the Envision® software
Top Mirror: LANCE/DELFIA Duel/Bias (Bar code 446)
Emission Filter: APC 665 EM (Bar code 205)
2nd Emission Filter: Europium 615 EM (Bar code 203)
Read 655 nm (channel 1) and 615 nm (channel 2) wavelengths on Envision®
Data Analysis: The Data can be read in CSV files. There are two tables in those CSV files, which are the values of 655 nm (channel 1) and 615 nm (channel 2) wavelengths respectively. The data is converted to an HTRF Ratio=(Channel 1/Channel 2)*10,000
The average of all the 0 μM controls (DMSO only)=BKGD (Background—0% activation). Subtract BKGD from each HTRF Ratio value=HTRF−BKGD. The average of all the […] 100 nM control activator in DMSO controls=Max (100% activation). The following equation is then used to calculate % Activation for each well/candidate as follows: % Activation=(HTRF−BKGD/Max)*100.
Graphpad Prism was used with Transform X values: X=Log(X) and nonlinear regression (dose-response-stimulation): Log(agonist) vs Response−variable slope (four parameters) with constrains set to Bottom=0 and Top=100.
The Activity-Based Probe Assay was performed with various compounds in Tables 1, 2, 3A and 3B.

| EC50 | Compound |
| --- | --- |
| > 100 µM | Cc1ccccc1C(=O)Nc1nc(-c2ccc(F)cn2)nn1-c1ccccc1 [Compound 50] |
| 2 µM | Cc1ccccc1C(=O)Nc1nc(N[C@@H](C)c2ccccc2)nn1-c1ccc(OC(F)(F)F)cc1 [Compound 117] |
| 2 µM | Cc1ccccc1C(=O)Nc1nc(NC(=O)c2ccncc2)nn1-c1ccc(Cl)cc1 [Compound 92] |
| > 100 µM | Cc1ccccc1C(=O)Nc1nc(-c2cocn2)nn1-c1ccccc1 [Compound 140] |
| 4 µM | Cc1ccccc1C(=O)Nc1nc(NC(=O)c2ccc(N=[N+]=[N-])cc2)n(-c2ccccc2)n1 [Compound 70] |
| > 100 µM | Cc1ccccc1C(=O)Nc1nc(NCCc2ccccc2)nn1-c1ccc(OC(F)(F)F)cc1 [Compound 106] |
| 2 µM | O=C(Nc1nc(NC(=O)c2ccncc2)n(-c2ccc(Cl)cc2)n1)c1ccncc1 [Compound 82] |
| 1 µM | COc1ccc(CNc2nc(NC(=O)c3ccccc3C)n(-c3ccc(OC(F)(F)F)cc3)n2)cc1 [Compound 107] |
| > 100 µM | Cc1ccccc1C(=O)Nc1nc(NC(=O)C2CCN(CCC#N)CC2)nn1-c1ccccc1 [Compound 45] |
| 0.2 µM and 0.4 µM and 0.5 µM | O=C(Nc1nc(NC(=O)c2c(F)c(F)c(F)c(F)c2F)nn1-c1ccccc1)c1ccccc1 [Compound 78] |
| 0.9 µM | Cc1ccccc1C(=O)Nc1nc(-c2ncccc2C)nn1-c1ccc(OC(F)(F)F)cc1 [Compound 139] |
| > 100 µM | O=C(Nc1nc(NC(=O)C2CCCCN2)n(-c2ccccc2)n1)C1CCCCN1 (stereo not shown) [Compound 49] |
| 5 µM | CCc1ccccc1C(=O)Nc1nc(NC(=O)c2ccccc2CC)n(-c2ccccc2)n1 [Compound 88] |
| > 100 µM | c1ccc(CCNc2nc(NCCc3ccccc3)n(-c3ccccc3)n2)cc1 [Compound 143] |
| 2 µM | COc1ccccc1CNc1nc(NC(=O)c2ccccc2C)n(-c2ccc(OC(F)(F)F)cc2)n1 [Compound 111] |
| 12 µM | O=C(Nc1nc(NC(=O)c2c(F)c(F)c(F)c(F)c2F)n(-c2ccccc2)n1)c1ccccc1 [Compound 55] |
| > 100 µM | c1ccc(CNc2nc(NCc3ccccc3)n(-c3ccccc3)n2)cc1 [Compound 138] |
| > 100 µM | O=C(Nc1ccccc1)c1nc(C(=O)Nc2ccccc2)n(-c2ccccc2)n1 [Compound 90] |
| > 100 µM | Cc1ccccc1C(=O)Nc1nc(NC(=O)C2CCCN2)n(-c2ccccc2)n1 (stereo not shown) [Compound 15] |
| 52 µM and > 100 µM | Cc1ccccc1C(=O)Nc1nc(NC(=O)c2ccccc2C)n(-c2ccc3c(c2)CCO3)n1 [Compound 1] |
| 1 µM | Cc1ccccc1C(=O)Nc1nc(NCCc2ccccc2)nn1-c1ccc(Cl)cc1 [Compound 109] |
| > 100 µM | Cc1ccccc1C(=O)Nc1nc(-c2cn(C)cn2)nn1-c1ccccc1 [Compound 125] |
| 1 µM | Cc1ccccc1C(=O)Nc1nc(NC(=O)c2cccc(N=[N+]=[N-])c2)n(-c2ccc(OC(F)(F)F)cc2)n1 [Compound 79] |
| 61 µM | O=C(Nc1nc(Nc2cccc3ccccc23)n(-c2ccccc2)n1)c1ccccc1 [Compound 52] |
| 1 µM | Cc1ccccc1C(=O)Nc1nc(NCCc2ccccc2)nn1-c1ccc(C(F)(F)F)cc1 [Compound 103] |
| 4 µM | Cc1ccccc1C(=O)Nc1nc(NC(=O)c2cccc(N=[N+]=[N-])c2)n(-c2ccccc2)n1 [Compound 69] |

| EC50 | Compound |
| --- | --- |
| 5 µM | Cc1c(C(=O)Nc2nc(NC(=O)c3ccnc(F)c3C)n(-c3ccccc3)n2)ccnc1F [Compound 98] |
| > 100 µM | Cc1ccccc1C(=O)Nc1nc(NC(=O)C2CCCNC2)nn1-c1ccccc1 (stereo not shown) [Compound 19] |
| 1 µM | Cc1ccccc1C(=O)Nc1nc(NCc2ccccc2)nn1-c1ccc(OC(F)(F)F)cc1 [Compound 105] |
| 4 µM | Cc1ccccc1C(=O)Nc1nc(NC(=O)c2cccnc2)nn1-c1ccc(C(F)(F)F)cc1 [Compound 94] |
| 3 µM | Cc1ccccc1C(=O)Nc1nc(NC(=O)c2ccncc2)nn1-c1ccc(OC(F)(F)F)cc1 [Compound 80] |
| > 100 µM | O=C(Nc1nc(NC(=O)C2CCCNC2)n(-c2ccccc2)n1)C1CCCNC1 (stereo not shown) [Compound 56] |
| 4 µM | Cc1ccccc1C(=O)Nc1nc(NC(=O)c2cccnc2)nn1-c1ccc(Cl)cc1 [Compound 95] |
| 5 µM | Cc1ccccc1C(=O)Nc1nc(-c2cccc[n+]2[O-])nn1-c1ccccc1 [Compound 130] |
| 1 µM | Cc1ccccc1C(=O)Nc1nc(NCc2cccc(Cl)c2)nn1-c1ccc(OC(F)(F)F)cc1 [Compound 112] |
| 2 µM | Cc1ccccc1C(=O)Nc1nc(NCCc2ccccc2)nn1-c1ccccc1 [Compound 91] |
| > 100 µM | Cc1ccccc1C(=O)Nc1nc(NC(=O)c2cn(C)cn2)n(-c2ccccc2)n1 [Compound 22] |
| 6 µM | Cc1ccccc1C(=O)Nc1nc(NC(=O)c2cccnc2)nn1-c1ccc(OC(F)(F)F)cc1 [Compound 86] |
| 0.3 µM | Cc1ccccc1C(=O)Nc1nc(-c2ncccc2C)nn1-c1ccc(Cl)cc1 [Compound 142] |
| > 100 µM | Cc1ccccc1C(=O)Nc1nc(NC(=O)c2ccccc2C)n(-c2ccc(N3CCNCC3)cc2)n1 [Compound 57] |
| 8 µM | Cc1ccccc1C(=O)Nc1nc(NC(=O)c2cccc(N=[N+]=[N-])c2)nn1-c1ccccc1 [Compound 66] |
| > 100 µM | Cc1ccccc1C(=O)Nc1nc(NC(=O)C2CCCNC2)n(-c2ccccc2)n1 (stereo not shown) [Compound 14] |
| 3 µM | O=C(Nc1nc(NC(=O)c2cccnc2)n(-c2ccc(Cl)cc2)n1)c1cccnc1 [Compound 81] |
| > 100 µM | C#Cc1ccc(C(=O)Nc2nc(NC(=O)c3ccc(N=[N+]=[N-])cc3)nn2-c2ccccc2)cc1 [Compound 53] |
| > 100 µM | Cn1cnc(-c2nc(N)n(-c3ccccc3)n2)c1 [Compound 147] |
| 18 µM | Cc1ccccc1C(=O)Nc1nc(NCc2ccccn2)nn1-c1ccccc1 [Compound 101] |
| 38 µM and 24 µM | Cc1ccccc1C(=O)Nc1nc(NC(=O)[C@@H]2C[C@@H](F)CN2)nn1-c1ccccc1 [Compound 4] |
| 10 µM | Cc1ccccc1C(=O)Nc1nc(NC(=O)c2ccccc2C)n(-c2ccc(N3CCOCC3)cc2)n1 [Compound 54] |
| 2 µM | COc1cccc(CNc2nc(NC(=O)c3ccccc3C)n(-c3ccc(OC(F)(F)F)cc3)n2)c1 [Compound 110] |
| > 100 µM | O=S(=O)(Nc1nc(NS(=O)(=O)c2ccccc2)n(-c2ccccc2)n1)c1ccccc1 [Compound 83] |
| 4 µM | Cc1ccccc1C(=O)Nc1nc(NCc2ccccc2)nn1-c1ccccc1 [Compound 84] |
| > 100 µM | c1ccc(-n2nc(NCCc3ccccn3)nc2NCCc2ccccn2)cc1 [Compound 145] |
